Like-named read-outs stand apart in the source and are kept apart here.
How the values were obtained:
[1] = in vivo; conditions: rat; for AUC / Cmax / Tmax / half-life: in vivo, po, 200 mg/kg; for enhancement of serum Ca level: 200 mg calcium/kg oral
Source text: (2) apparatus: Model WFX-1B Spectrophotometer of Atomic Absorption was produced by The Second Optical Apparatus Factory of Beijing, 83114; P-E 3030 Spectrophotometer of Atomic Absorption was produced by Perkin-Elmer Corp.,USA;DT-100 Single-Pan Balance (1/10^4) was produced by Beijing Optical Apparatus Factory; TJ-6 Centrifuge was produced by Beckman, USA; Model MVS-1 Vortex Mixer was produced by Beijing Beide Scientific Apparatus and Materials Co. Ltd.
Twelve hours after the animals had been fasted, 0.5 mL plasma was sampled by excising eyeballs. The plasma was established as the blank group. Then rats were administered agents once in an amount of 20 mL/kg body weight by pouring into the stomach. 0.5 mL plasma was sampled by taking from eyeballs 0.25,0.5,1,1.5,2,3,4,6,8,12 and 16 hours later after the administration. […] The concentration of calcium was measured by a Model WFX-1B Spectrophotometer of Atomic Absorption.

[2] = tested on: preschool children; conditions: for bone mineral density: before test 0.379 (threonate), 0.369 (carbonate)
Protocol: Seventy 3-6 years old healthy children whose bone mineral density were medium-lower at a central kindergarten in the suburban county of Beijing were selected as subjects, wherein there are 13 boys and 57 girls. All were healthy children who didn't have any metabolic diseases, liver or kidney diseases, bone wounds and abnormal diseases.
Double blind method was employed during the observation. Every person was administered calcium preparation or placebo twice a day in a dosage of 1 bag each time. […] Group IV, established as blank-control group, was administered placebo which didn't contain calcium. All the above oral preparations were provided by Beijing Juneng Asian-Pacific Life Science Research Center.
(1) Bone mineral density was measured before the test and 1.5 months and 3 months later after the administration of Ca supplements.
The bone mineral density of radius in non-preferred hand was measured at the 1/3 point near the farther-end by a Model BMD400 Single-Photon absorptiometry produced conjointly by Institute of Atomic Energy, Ministry of Nuclear Industry, China and Institute of Broadcasting, Beijing, to obtain mean mineral bone density (BMD, g/cm^2). Each point was scanned twice with a scanning speed of 0.5 mm/sec.
All data was analyzed with a SAS statistical software package.

[3] = tested on: rickets-babies; conditions: for craniomalacia, babies with symptom after the beginning of test: before test 3 (threonate), 4 (carbonate); for pillow-bald, babies with symptom after the beginning of test: before test 9 (threonate), 9 (carbonate); for night-sweat, babies with symptom after the beginning of test: before test 12 (threonate), 13 (carbonate)
Protocol: Fourty rickets-babies at the age of 3-10 months were randomly divided into 2 groups of 20 babies each. […] Test group II, namely the calcium carbonate group, were administered orally calcium carbonate twice a day in a dosage of one bag each time. Each bag of the two kind of calcium preparations contained the same amount of element calcium, namely 150 mg element calcium.
(1) Clinic symptoms mainly included the normal symptoms of rickets-babies such as night-sweat, pillow-bald, craniomalacia, etc.

[4] = tested on: rickets-babies
Protocol: Fourty rickets-babies at the age of 3-10 months were randomly divided into 2 groups of 20 babies each. […] Test group II, namely the calcium carbonate group, were administered orally calcium carbonate twice a day in a dosage of one bag each time.
(2) Biochemical examinations of blood. Venous blood of rickets-baby was sampled before and after the beginning of test and serum Ca, P and AKP level were measured and the product of [Ca]×[P] was calculated.
(3) Data processing: All data was statistically analyzed using the method of direct calculation of probability, grouping t-test and pairing t-test.
Considering the difficulty in sampling blood from rickets-babies during the test operation, blood sampling was not performed at the second week after the beginning of the test. Blood sampling was only performed before the test and at the fourth week after the beginning of the test.

[5] = tested on: osteoporosis; conditions: oral administration; Recker et al 1977; cited from earlier work
[6] = tested on: rickets-mice; experiment: Preventing rickets in younger mice: serum Ca, AKP, P; assay type: in vivo, mice of Kunming species; conditions: 300 mg calcium element, 60 days
Protocol: (§1) The mice were bred for 60 days under conditions of avoiding light around-the-clock, at a temperature of 20-25° C. and a relative humility of 40-60% while the normal-control group mice were fed ordinary diet and water and were placed in non-dark room.
(§2) The low-calcium diet used in this test was the same as that in Test II but VD in the vitamin mixture was replaced by glucose.
(§3) Some weanling mice were placed in dark room and fed VD -deficient low-calcium diet and drunk de-ionized water for 60 days, thus a ricket model of baby mice was prepared. While other weanling mice were placed in non-dark room and fed ordinary diet and drunk tap water for 60 days, these mice were established as normal-control group.

[7] = tested on: rickets-mice; experiment: Preventing rickets in younger mice: body weight, dry weight, ash weight and total calcium content of femur; assay type: in vivo, mice of Kunming species; conditions: 300 mg calcium element
Protocol: as §1, §2, §3

[8] = tested on: rickets-mice; experiment: Preventing rickets in younger mice: tibia strength (three-point bending); assay type: in vivo, mice of Kunming species
Protocol: as §1, §2, §3

[9] = 2 bags/day of 150 mg element calcium, 1.5 months
[10] = after four weeks of Ca-supplementing

Structure (SMILES): CC(=O)O [calcium acetate]
- AUC [1]: 28200 ng·h/mL
- Cmax [1]: 24900 ng/mL
- Tmax [1]: 36.6 min

Structure (SMILES): O=C(O)O [calcium carbonate]
- enhancement of serum Ca level ([1]; 0.25 hrs): 11.1 µg/mL
- enhancement of serum Ca level ([1]; 0.5 hrs): 24.7 µg/mL
- enhancement of serum Ca level ([1]; 1 hrs): 21.4 µg/mL
- enhancement of serum Ca level ([1]; 1.5 hrs): 17.1 µg/mL
- enhancement of serum Ca level ([1]; 2 hrs): 13.2 µg/mL
- enhancement of serum Ca level ([1]; 3 hrs): 10.9 µg/mL
- enhancement of serum Ca level ([1]; 4 hrs): 5.7 µg/mL
- enhancement of serum Ca level ([1]; 6 hrs): 0.2 µg/mL
- enhancement of serum Ca level ([1]; 8 hrs): -1.4 µg/mL
- AUC [1]: 40400 ng·h/mL
- Cmax [1]: 31100 ng/mL
- Tmax [1]: 39.6 min
- half-life [1]: 20.4 min
- bone mineral density ([2]; 2 bags/day of 150 mg element calcium, 1.5 month): 0.385 ± 0.028 g/cm^2
- extent of BMDs' increase [2, 9]: 4.37%
- percentage of children whose BMDs reached the normal range [2, 9]: 0%
- bone mineral density ([2]; 2 bags/day of 150 mg element calcium, 3 month): 0.412 ± 0.020 g/cm^2
- extent of BMDs' increase ([2]; 2 bags/day of 150 mg element calcium, 3 months): 11.65%
- BMD comparison between groups (in words) ([2]; in vivo): markedly higher than those of the blank-control group only in 3 months
- total symptom improvement ([3]; four weeks): 57.6%
- craniomalacia, babies with symptom after the beginning of test ([3]; four weeks): 3
- pillow-bald, babies with symptom after the beginning of test ([3]; four weeks): 5
- night-sweat, babies with symptom after the beginning of test ([3]; four weeks): 3
- total symptom improvement ([3]; two weeks): 11.5%
- rickets-babies free of symptoms ([3]; two weeks of administration (concluding text)): 50%
- craniomalacia, babies with symptom after the beginning of test ([3]; two weeks): 4
- pillow-bald, babies with symptom after the beginning of test ([3]; two weeks): 9
- night-sweat, babies with symptom after the beginning of test ([3]; two weeks): 10
- percentage of babies whose AKP reached the normal range [4, 10]: 30%
- percentage of babies whose [Ca] × [P] reached the normal range [4, 10]: 70%
- percentage of babies whose serum P reached the normal range [4, 10]: 60%
- serum Ca change (in words) ([4]; before and after the test, P>0.05): no significant variation
- serum P ([4]; four weeks after, before 3.19 ± 0.25 (threonate), 3.12 ± 0.20 (carbonate)): 3.90 ± 0.52
- serum Ca ([4]; four weeks after, before 10.49 ± 0.39 (threonate), 10.51 ± 0.47 (carbonate)): 10.55 ± 0.42
- [Ca] × [P] ([4]; four weeks after, before 33.4 ± 2.47 (threonate), 33.83 ± 2.17 (carbonate)): 43.19 ± 5.22
- AKP ([4]; four weeks after, before 235.95 ± 7.89 (threonate), 235.25 ± 7.37 (carbonate)): 225.25 ± 22.93
- effectiveness for preventing osteoporosis [5]: not effective for preventing osteoporosis

Structure (SMILES): O=C(O)[C@H](O)[C@@H](O)[C@H](O)[C@H](O)CO [calcium gluconate, reference compound]
- AUC [1]: 138000 ng·h/mL
- Cmax [1]: 32100 ng/mL
- Tmax [1]: 26.4 min
- half-life [1]: 160 min
- serum Ca ([6]; model 1.55 ± 0.42): 2.37 ± 0.97 mmol/L
- serum P ([6]; model 2.23 ± 0.52): 1.71 ± 0.45 mmol/L
- serum AKP (in Bessey-Loury unit) ([6]; model 101 ± 34): 46.6 ± 13 U/L
- dry weight of femur ([7]; model 0.099 ± 0.014): 0.122 ± 0.019 g
- total calcium content ([7]; model 24.81 ± 4.36): 30.23 ± 5.23 mg
- ash weight ([7]; model 46.62 ± 9.38): 70.76 ± 10.18 mg
- breaking force (tibia) ([8]; 300 mg calcium element, model 1.12 ± 0.37): 1.54 ± 0.35 kg
- breaking force of tibia (in words) ([8]; mouse, in vivo): significantly higher than those for the model group and were comparable with those for the normal-control group
